Converted amounts (≈) assume the structure as drawn.
Experiments:
Assay type in all cases: functional
[1] = tested on: Mycobacterium tuberculosis; test: Antimycobacterial activity against isoniazid-resistant Mycobacterium tuberculosis H37Rv ATCC 35822 assessed as inhibition of bacterial growth incubated for 48 hrs by broth microdilution assay
[2] = tested on: Mycobacterium tuberculosis; test: Antimycobacterial activity against ethambutol-resistant Mycobacterium tuberculosis H37Rv ATCC 35837 assessed as inhibition of bacterial growth incubated for 48 hrs by broth microdilution assay
[3] = tested on: Mycobacterium tuberculosis; test: Antimycobacterial activity against Streptomycin-resistant Mycobacterium tuberculosis H37Rv ATCC 35820 assessed as inhibition of bacterial growth incubated for 48 hrs by broth microdilution assay
[4] = tested on: Mycobacterium tuberculosis; test: Antimycobacterial activity against rifampicin-resistant Mycobacterium tuberculosis H37Rv ATCC 35838 assessed as inhibition of bacterial growth incubated for 48 hrs by broth microdilution assay

## COC(=O)c1cc(-c2cccc(NC(=O)c3ccc(/C=C/C(=O)c4ccccc4Cl)cc3)c2)on1
[1]
  MIC: 1 µg/mL (≈ 2.05 µM)
[2]
  MIC: 0.25 µg/mL (≈ 0.513 µM)
[3]
  MIC: 0.5 µg/mL (≈ 1.03 µM)
[4]
  MIC: 0.25 µg/mL (≈ 0.513 µM)

## COC(=O)c1cc(-c2cccc(NC(=O)c3ccc(/C=C/C(=O)c4ccc(N5CCOCC5)cc4)cc3)c2)on1
[1]
  MIC: 0.12 µg/mL (≈ 0.223 µM)
[2]
  MIC: 0.12 µg/mL (≈ 0.223 µM)
[3]
  MIC: 2 µg/mL (≈ 3.72 µM)
[4]
  MIC: 0.12 µg/mL (≈ 0.223 µM)

## CN[C@@H]1[C@H](O[C@H]2[C@H](O[C@H]3[C@H](O)[C@@H](O)[C@H](N=C(N)N)[C@@H](O)[C@@H]3N=C(N)N)O[C@@H](C)[C@]2(O)C=O)O[C@@H](CO)[C@H](O)[C@H]1O [STREPTOMYCIN]
[1]
  MIC: 1 µg/mL (≈ 1.72 µM)
[2]
  MIC: 2 µg/mL (≈ 3.44 µM)
[3]
  MIC: > 64 µg/mL
[4]
  MIC: 1 µg/mL (≈ 1.72 µM)

## CO[C@H]1/C=C/O[C@@]2(C)Oc3c(C)c(O)c4c(O)c(c(/C=N/N5CCN(C)CC5)c(O)c4c3C2=O)NC(=O)/C(C)=C\C=C\[C@H](C)[C@H](O)[C@@H](C)[C@@H](O)[C@@H](C)[C@H](OC(C)=O)[C@@H]1C [RIFAMPIN]
[1]
  MIC: 0.03 µg/mL (≈ 0.0365 µM)
[2]
  MIC: 0.03 µg/mL (≈ 0.0365 µM)
[3]
  MIC: 0.03 µg/mL (≈ 0.0365 µM)
[4]
  MIC: 64 µg/mL (≈ 77.8 µM)

## COC(=O)c1cc(-c2cccc(NC(=O)c3ccc(/C=C/C(=O)c4ccc(Cl)cc4Cl)cc3)c2)on1
[1]
  MIC: > 64 µg/mL
[2]
  MIC: > 64 µg/mL
[3]
  MIC: 1 µg/mL (≈ 1.92 µM)
[4]
  MIC: 64 µg/mL (≈ 123 µM)

## COC(=O)c1cc(-c2cccc(NC(=O)c3ccc(/C=C/C(=O)c4ccc(F)cc4F)cc3)c2)on1
[1]
  MIC: 1 µg/mL (≈ 2.05 µM)
[2]
  MIC: 0.12 µg/mL (≈ 0.246 µM)
[3]
  MIC: 2 µg/mL (≈ 4.09 µM)
[4]
  MIC: 0.25 µg/mL (≈ 0.512 µM)

## COC(=O)c1cc(-c2cccc(NC(=O)c3ccc(/C=C/C(=O)c4cccc(Cl)c4)cc3)c2)on1
[1]
  MIC: 0.5 µg/mL (≈ 1.03 µM)
[2]
  MIC: 0.12 µg/mL (≈ 0.246 µM)
[3]
  MIC: 0.5 µg/mL (≈ 1.03 µM)
[4]
  MIC: 0.5 µg/mL (≈ 1.03 µM)

## COC(=O)c1cc(-c2cccc(NC(=O)c3ccc(/C=C/C(=O)c4ccc(CC(C)C)cc4)cc3)c2)on1
[1]
  MIC: > 64 µg/mL
[2]
  MIC: > 64 µg/mL
[3]
  MIC: 1 µg/mL (≈ 1.97 µM)
[4]
  MIC: 16 µg/mL (≈ 31.5 µM)

## COC(=O)c1cc(-c2cccc(NC(=O)c3ccc(/C=C/C(=O)c4ccc(OC)cc4OC)cc3)c2)on1
[1]
  MIC: 2 µg/mL (≈ 3.9 µM)
[2]
  MIC: 0.25 µg/mL (≈ 0.488 µM)
[3]
  MIC: 2 µg/mL (≈ 3.9 µM)
[4]
  MIC: 0.25 µg/mL (≈ 0.488 µM)

## CCOc1ccc(C(=O)/C=C/c2ccc(C(=O)Nc3cccc(-c4cc(C(=O)OC)no4)c3)cc2)cc1
[1]
  MIC: 0.5 µg/mL (≈ 1.01 µM)
[2]
  MIC: 0.06 µg/mL (≈ 0.121 µM)
[3]
  MIC: 0.5 µg/mL (≈ 1.01 µM)
[4]
  MIC: 0.03 µg/mL (≈ 0.0604 µM)

## CCOC(=O)c1cc(-c2cccc(NC(=O)c3ccc(/C=C/C(=O)c4ccc(Cl)cc4)cc3)c2)on1
[1]
  MIC: 32 µg/mL (≈ 63.9 µM)
[2]
  MIC: 4 µg/mL (≈ 7.99 µM)
[3]
  MIC: 64 µg/mL (≈ 128 µM)
[4]
  MIC: 0.5 µg/mL (≈ 0.998 µM)

## COC(=O)c1cc(-c2ccc(NC(=O)c3ccc(/C=C/C(=O)c4ccc(Cl)cc4)cc3)cc2)on1
[1]
  MIC: 0.5 µg/mL (≈ 1.03 µM)
[2]
  MIC: 0.25 µg/mL (≈ 0.513 µM)
[3]
  MIC: 8 µg/mL (≈ 16.4 µM)
[4]
  MIC: 0.5 µg/mL (≈ 1.03 µM)

## COC(=O)c1cc(-c2cccc(NC(=O)c3ccc(/C=C/C(=O)c4ccccc4C)cc3)c2)on1
[1]
  MIC: 1 µg/mL (≈ 2.14 µM)
[2]
  MIC: 0.12 µg/mL (≈ 0.257 µM)
[3]
  MIC: 2 µg/mL (≈ 4.29 µM)
[4]
  MIC: 0.25 µg/mL (≈ 0.536 µM)

## NNC(=O)c1ccncc1 [ISONIAZID]
[1]
  MIC: > 64 µg/mL
[2]
  MIC: 0.03 µg/mL (≈ 0.219 µM)
[3]
  MIC: 0.03 µg/mL (≈ 0.219 µM)
[4]
  MIC: 0.03 µg/mL (≈ 0.219 µM)

## COC(=O)c1cc(-c2cccc(NC(=O)c3ccc(/C=C/C(=O)c4ccc(C)cc4)cc3)c2)on1
[1]
  MIC: 0.5 µg/mL (≈ 1.07 µM)
[2]
  MIC: > 64 µg/mL
[3]
  MIC: 0.25 µg/mL (≈ 0.536 µM)
[4]
  MIC: > 64 µg/mL

## CC[C@@H](CO)NCCN[C@@H](CC)CO [ETHAMBUTOL]
[1]
  MIC: 4 µg/mL (≈ 19.6 µM)
[2]
  MIC: 32 µg/mL (≈ 157 µM)
[3]
  MIC: 1 µg/mL (≈ 4.89 µM)
[4]
  MIC: 1 µg/mL (≈ 4.89 µM)

## CCOC(=O)c1cc(/C=C/c2c(Cl)cncc2Cl)on1
[1]
  MIC: 4 µg/mL (≈ 12.8 µM)
[2]
  MIC: 8 µg/mL (≈ 25.5 µM)
[3]
  MIC: 8 µg/mL (≈ 25.5 µM)
[4]
  MIC: 1 µg/mL (≈ 3.19 µM)

## CCCOc1ccc(C(=O)/C=C/c2ccc(C(=O)Nc3cccc(-c4cc(C(=O)OC)no4)c3)cc2)cc1
[1]
  MIC: 0.12 µg/mL (≈ 0.235 µM)
[2]
  MIC: 0.06 µg/mL (≈ 0.118 µM)
[3]
  MIC: 2 µg/mL (≈ 3.92 µM)
[4]
  MIC: 0.03 µg/mL (≈ 0.0588 µM)

## COC(=O)c1cc(-c2cccc(NC(=O)c3ccc(/C=C/C(=O)c4ccc(Cl)cc4)cc3)c2)on1
[1]
  MIC: > 64 µg/mL
[2]
  MIC: > 64 µg/mL
[3]
  MIC: 2 µg/mL (≈ 4.11 µM)
[4]
  MIC: 2 µg/mL (≈ 4.11 µM)

Reference: ChEMBL document CHEMBL4823271, “Synthesis and structure-activity relationship of new chalcone linked 5-phenyl-3-isoxazolecarboxylic acid methyl esters potentially active against drug resistant Mycobacterium tuberculosis” (Eur J Med Chem, 2021)
